Values joined by “and” are separate entries in the source; they are usually repeats but may differ in a detail not shown here. Identical values can stand only once.
system: P. falciparum 3D7 growth, pLDH absorbance; assay: blood-stage malaria parasite growth potency – strain 3D7, dose response (AID 2305)

SMILES	IC50
CNCCCCCCOc1ccc(CC(C)NCC(O)c2cccc(C(F)(F)F)c2)cc1 (centres undefined)	880 nM
CN1CCC(N(Cc2ccc(-c3ccc(C(F)(F)F)cc3)cc2)C(=O)Cn2c(SCc3cccc(F)c3F)cc(=O)c3c2CCC3)CC1	160 nM
COc1ccc(NC(=O)Nc2ccc(-c3ccncc3)c(Cl)c2)cc1N1CCN(C)CC1	760 nM
CCCN(CCCCNC(=O)c1ccc(-c2cccnc2)cc1)C1CCc2c(O)cccc2C1 (centres undefined)	1120 nM
COc1ccc(Cl)cc1NC(=O)CN(C)C(=O)c1cnn(-c2ccccc2)n1	230 nM
O=C(Nc1cccc(-c2csc(-c3nc4ccccc4[nH]3)c2)c1)c1cc(=O)c2ccccc2[nH]1	230 nM
N#Cc1ccc2c(c1)CCN(CCC1CCC(NC(=O)c3cc4cccc([N+](=O)[O-])c4[nH]3)CC1)C2 (centres undefined)	680 nM
O=C(Nc1cccc(-c2ccc(-c3nc4ccccc4[nH]3)cc2)c1)Nc1ccc(F)c(F)c1F	240 nM
C/C=C1\CN2CC[C@H]1C[C@@H]2[C@@H](O)c1ccnc2ccc(O)cc12	250 nM
CCCCNC(=O)[C@H](CC1CCCCC1)NC(=O)c1ccc(O)c(-c2cccc(C(F)(F)F)c2)c1	770 nM
O=C(NOCCOc1ccccc1)c1ccccc1	320 nM
O=C(NCCCCN1CCCC2c3ccc(O)cc3CCC21)c1ccc(-c2ccccc2)cc1 (centres undefined)	730 nM and 940 nM
COc1ccc([C@@]23Oc4cc(OC)cc(OC)c4[C@]2(O)C2(CC3c3ccccc3)SCCCS2)cc1 (some centres undefined)	120 nM
Cc1cccc2[nH]c(-c3ccc(-c4ccc(CN5CCCC(N)C5)cc4)s3)nc12 (centres undefined)	380 nM
CCOC(=O)c1ccc(NC(=O)Nc2cccc(-c3ccc(-c4nc5c(C)cccc5[nH]4)s3)c2)cc1	140 nM
CC(=O)Nc1ccc(CN2CCC(NC(=O)c3ccc(-c4cccc(C(F)(F)F)c4)s3)CC2)cc1	890 nM
COc1cccc(NC(=O)c2nc(N3CCN(c4ccncc4)CC3)ccc2Cl)c1	920 nM
C=CC[C@H](C[C@H](O)[C@H](Cc1ccccc1)NC(=O)c1ccc(-n2cccn2)cc1)C(=O)NC1CCCCC1	810 nM
COC(=O)c1ccc2nc(-c3ccc(/C=C/C(=O)NCc4ccc(Cl)c(Cl)c4)cc3)[nH]c2c1	1340 nM
Cc1ccc(C(NC(=O)C2CCCCC2)c2ccc3cccnc3c2O)cc1 (centres undefined)	950 nM
OC1CCC(Nc2ccc3ncc(-c4ccc(Cl)cc4)n3n2)CC1 (centres undefined)	820 nM
CCCCCCNCc1c(O)ccc2c(CNCCCCCC)c(O)ccc12	130 nM
O=C(Nc1ccccc1)NC1CCN(CCC2(c3ccc(Cl)c(Cl)c3)COCN(C(=O)c3ccccc3)C2)C1 (centres undefined)	880 nM
COc1ccc2nc3cc(Cl)ccc3c(NCCN3CCN(C)CC3)c2c1	120 nM
CN(C)CCCOc1ccc(CCNCc2cccc(Oc3ccc(Cl)cc3)c2)cc1	890 nM

SMILES	IC50
CCc1cn(C)c2c(N3CCCC3=O)cc(C(=O)N[C@@H](Cc3ccccc3)[C@H](O)CNC(C)(C)c3cccc(C(F)(F)F)c3)cc12	110 nM
O=C(NC1CCC1)C1CCN(C(c2ccccc2)c2cc(F)cc(F)c2)CC1 (centres undefined)	800 nM
OC(c1ccc(Cl)cc1)(c1ccc(Cl)cc1)C(c1ccc(Cl)cc1)n1ccnc1 (centres undefined)	860 nM
CC(C)=CC1C(C(=O)n2c(N)nc3ccccc32)C1(C)C (centres undefined)	190 nM
CCCC(N)C(=O)NC1CCN(c2c(F)c(N)c3c(=O)c(C(=O)O)cn4c3c2Oc2ccccc2-4)C1 (centres undefined)	360 nM
CN(C)C(=O)c1ccc(CN(Cc2ccc(OC(C)(C)C)cc2)Cc2ccc3c(c2)OCCO3)cc1	830 nM
FC(F)(F)c1ccc(NC(=S)N2CCC(CN3CCC(c4c[nH]c5ccccc45)CC3)CC2)cc1	660 nM
COC(=O)c1ccc(CC(C)NCC(O)c2cccc(C(F)(F)F)c2)cc1 (centres undefined)	970 nM and 1150 nM
CN(C)CC1CCCN1Cc1ccccc1-c1cnn(C)c(=O)c1Oc1ccc(F)cc1 (centres undefined)	1220 nM
Cc1cnc(NC(=O)c2cn(-c3ccccc3)nc2-c2cccs2)s1	950 nM
O=C(Nc1ccc(OC2CCN(Cc3ccccc3)CC2)c(Cl)c1)c1ccco1	410 nM
CCc1c(CCNCCCCCCNCCc2ccc([N+](=O)[O-])cc2)ccc(O)c1O	780 nM
Cc1ccc(F)cc1S(=O)(=O)N1CCCCC(c2ccc(C(F)(F)F)cc2)=N1	940 nM
CCC(Cc1ccccc1)c1cc(O)c(Cc2ccc(-c3ccccc3)cc2)c(=O)o1 (centres undefined)	970 nM
COc1cccc(OC2CCN(C(=O)c3cc(C(C)(C)C)nn3Cc3ccccc3)CC2)c1	250 nM
CN(C)CCCOc1ccc(CN2CC[C@H](NC(=O)c3ccc(Cl)c(Cl)c3)C2)c2ccccc12	880 nM
COc1cc(F)c2nccc([C@@H](O)CN3CC[C@H](NCc4ccc5c(n4)NC(=O)CS5)[C@H](F)C3)c2c1	1170 nM
O=C(Nc1ccc(Cl)cc1)c1cccc2[nH]c(C(F)(F)F)nc12	760 nM
O=c1cc(N2CCCNCC2)c(Cl)nn1Cc1ccc(NS(=O)(=O)c2ccc(Oc3ccccc3)cc2)cc1	800 nM
O=C(NCc1cccc2ccccc12)c1ccc(CNC2CCN(Cc3ccccc3)CC2)cc1	840 nM
C=CCc1cc(SC)ccc1Oc1ccc(N)cc1	740 nM
Cc1ccc(Nc2nc(C)cc(Nc3cccc(C#N)c3)n2)cc1	980 nM
COc1cc(NC(=O)Nc2cccc3ccccc23)c(OC)cc1Cl	480 nM
Cc1cc(NN=Cc2ccccc2Cl)c2cc(C(F)(F)F)ccc2n1	860 nM
O=C(NCCCN(Cc1ccc(F)cc1)c1ccccn1)C(c1cc2ccccc2o1)N1CCN(C(c2ccccc2)c2ccccc2)CC1 (centres undefined)	840 nM

SMILES	IC50
OC1CCCN(Cc2ccc(-c3ccc(-c4nc5ccccc5[nH]4)cc3)cc2)C1 (centres undefined)	840 nM
O=C(Nc1ccc(-c2nc3ccccc3[nH]2)cc1)c1ccc(Cl)s1	590 nM
CCCCCC(C)c1cc(O)c2c(c1)OC(C)(C)C=C2C1=CCN(Cc2ccccc2)CC1 (centres undefined)	780 nM
CCCCN(CCCC)CCCCNc1c2ccccc2nc2ccccc12	150 nM
O=C(Nc1ccc2c(ccn2C2CCCN(Cc3cc(F)cc(F)c3F)CC2)c1)c1ccco1 (centres undefined)	650 nM
CS(=O)(=O)c1ccc(-c2cnc(N)c(-c3cccc(O)c3)c2)cc1	690 nM
COc1ccc(CNC2CCN(C)CC2)cc1-c1ccc(S(=O)(=O)NC2CCC2)s1	730 nM
Cc1ccc(CN2CCCCC(NC(=O)c3cc4ccccc4s3)C2)cc1 (centres undefined)	900 nM
CC1(CCc2ccccc2)N=C(N)N=C(N)C1c1ccc(Cl)c(Cl)c1 (centres undefined)	320 nM
O=C(Nc1ccc(C(=O)OCC(c2ccccc2)c2ccccc2)cc1)N[C@@H](Cc1ccc(O)cc1)C(=O)NC1CCN(Cc2ccc(O)cc2)C1 (some centres undefined)	780 nM
Nc1nc(N)c2c(Cc3ccccc3)cccc2n1	830 nM
COc1ccc2nccc(N3CCC(NCc4ccc5c(n4)NC(=O)CS5)CC3)c2n1	860 nM
CCCc1cc(Cc2cnc(N)nc2N)cc(CCC)c1OCCCCC(=O)O	200 nM
CC(C)NCc1ccc(-c2cccc(NC(=O)c3ccc(Cl)cc3)c2)cc1	290 nM
Cc1ccc2nc(C)n(C3CCN(C(=O)Cc4ccc(F)c(F)c4)CC3)c2c1	470 nM
CC(C)c1ccc(C=CC(=O)N2CCC(CCN3CCC(c4c[nH]c5ccccc45)CC3)CC2)cc1	1260 nM
Cc1cc(-c2cccc(CNC3CCN(C)CC3)c2)ccc1S(=O)(=O)NCCN1CCCC1	980 nM
O=C(Nc1ccc(OC2CCN(Cc3ccc(F)cc3)C2)c(Cl)c1)c1cccs1 (centres undefined)	130 nM
C=C(C)CSc1nc2c(c(=O)n1Cc1ccco1)C1(CCCCC1)Cc1ccccc1-2	1000 nM
CC(C)(C)c1ccc(NC(=O)c2ccc(CN3CCCN(Cc4ccsc4)CC3)cc2)cc1	720 nM
COc1ccc(Cn2c(Nc3cccc(C(F)(F)F)c3)nc3cc(C(=O)NC(C)C)cnc32)cc1Cl	970 nM
CN(C)CCNC(=O)c1ccc(-c2ccc3c(Nc4ccccc4)c(C(N)=O)cnc3c2)cc1	730 nM
CC(C)(C)c1ccc2nc(-c3ccc(/C=C/C(=O)NCc4ccc(Cl)c(Cl)c4)cc3)[nH]c2c1	40 nM
Cc1cc(OCC2CCCN(c3ncc(C(=O)NC4CC4)cc3Cl)C2)ccc1F (centres undefined)	1490 nM
CCc1cccc2sc(N3CCN(C(=O)c4ccc([N+](=O)[O-])o4)CC3)nc12	770 nM

SMILES	IC50
COc1cc(C)nc2ccc(NC(=O)Nc3ccc4nc(C)cc(OC)c4c3)cc12	550 nM
Cc1cc(CNC(c2ccccc2)C2CCC2)cc(C)c1O (centres undefined)	890 nM
Cc1[nH]c(C)c(-c2ccc(Oc3ccccc3)cc2)c(=O)c1Br	50 nM
Cc1ccc(O)cc1Nc1ccnc2cc(-c3csc(CN(C)CCN(C)C)n3)ccc12	790 nM
CC(=O)Nc1cccc(NC(=O)CSc2ccc(-c3nc4ccccc4[nH]3)cn2)c1	560 nM
CN1CCN(Cc2ccc(-c3ccc4c(Nc5ccc(F)cc5Cl)ccnc4c3)o2)CC1	140 nM
COc1ccc2nc(C)cc(NN=Cc3ccc(Cl)cc3)c2c1	230 nM
O=C(Nc1ccccc1Br)c1cn(-c2ccccc2)nc1-c1cccc([N+](=O)[O-])c1	1320 nM
COCCNCc1cccc(-c2cccc(CNC3CCN(Cc4ccccc4)CC3)c2)c1	280 nM
CN1CCN(c2ccnc3cc4c(cc23)N(C(=O)Nc2ccc3c(c2)CCCC3=O)CC4)CC1	620 nM
Cc1ccc(-c2ccc3c(c2)C=C(C(=O)NC2CCN(CCNC(=O)c4cccc(C(F)(F)F)c4)CC2)CCC3)cc1	510 nM
CCCCCCCN1CC[C@@H](CCCc2ccnc3ccc(OC)cc23)[C@@H](CNC)C1	210 nM
CN(C)c1ccc(-c2csc(C(=O)NC3CCN(Cc4ccc(C(C)(C)C)cc4)C3)c2)cc1 (centres undefined)	950 nM
O=C(Oc1ccc(Cl)cc1C(=O)Nc1ccc([N+](=O)[O-])cc1Cl)c1ccccc1	910 nM
O=C(Nc1ccc2c(c1)CNCC2)c1ccc(-c2ccc(Cl)cc2)cc1	660 nM
CCN(Cc1ccccc1)C1CCN(Cc2cc(Br)ccc2O)CC1	820 nM
CC(C)NCc1ccc(-c2ccc(NC(=O)c3ccc(Cl)cc3)cc2)cc1	910 nM
CC(C)CCCC(C)(C)NC[C@@H](O)[C@H](Cc1ccccc1)NC(=O)c1cc(NC(C)C)cc(N2CCCCS2(=O)=O)c1	210 nM
Fc1cccc(Nc2nc(NCc3ccc(Cl)c(Cl)c3)nc(Nc3cccc(F)c3)n2)c1	750 nM
O=C(Nc1cccc(CN2CCCN(Cc3cccc(O)c3)CC2)c1)c1ccc(Cl)c(Cl)c1	660 nM
Cc1nc(-c2cccc(Nc3nccc(NCC(O)c4ccccc4C(F)(F)F)n3)c2)cs1 (centres undefined)	830 nM
O=C(Nc1cccc(CN2CCCN(CC3CC3)CC2)c1)c1ccc(-c2ccccc2)cc1	930 nM
CCN(CC)CCOc1ccc(NC(=O)c2oc3ccccc3c2C=Cc2ccccc2)cc1	220 nM
COc1ccc(NC(=O)Nc2ccc(-c3ccc(-c4nc5c(C)cccc5[nH]4)s3)cc2)cc1	180 nM

Source: PubChem BioAssay AID2305 (GlaxoSmithKline (GSK), 2010)
